Laboratory results as given in patent US20120004244A1, “Bis Aromatic Compounds for Use as LTC4 Synthase Inhibitors” (BIOLIPOX AB, priority 2009, published 2012).

Biological target: T1, Recombinant human LTC4 synthase (Homo sapiens, UniProt Q16873)
T1 construct: made in house; host or cells: Pichia pastoris ('Piccia pastoralis' [sic])
T1 sequence (Q16873 1-150): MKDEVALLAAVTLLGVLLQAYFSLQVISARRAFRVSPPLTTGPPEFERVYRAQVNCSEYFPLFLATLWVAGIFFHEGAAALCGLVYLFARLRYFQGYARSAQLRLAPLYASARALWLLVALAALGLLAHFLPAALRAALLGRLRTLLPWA
Assay: LTC4 synthase in vitro assay (LTA4 to LTC4, HTRF detection)
Format: biochemical
Details: for inhibition at 10 µM: 5 min, total concentration of title compound in the assay 10 μM
Procedure: In the assay, LTC4 synthase catalyses the reaction where the substrate LTA4 is converted to LTC4. Recombinant human LTC4 synthase is expressed in Piccia pastoralis and the purified enzyme is dissolved in 25 mM tris-buffer pH 7.8 supplemented with 0.1 mM glutathione (GSH) and stored at −80° C. The assay is performed in phosphate buffered saline (PBS) pH 7.4 and 5 mM GSH in 384-well plates.
The following is added chronologically to each well:
1.48 μL LTC4 synthase in PBS with 5 mM GSH. The total protein concentration in this solution is 0.5 μg/mL. 2. 1 μL inhibitor in DMSO (final concentration 10 μM). 3. Incubation of the plate at room temperature for 10 min. 4. 1 μL LTA4 (final concentration 2.5 μM). 5. Incubation of the plate at room temperature for 5 min. 6. 10 μL of the incubation mixture is analysed using homogenous time resolved fluorescent (HTRF) detection.

Row | IC50 [nM] | inhibition at 10 µM [%] | Structure (SMILES)
1 | 40 |  | O=C(c1ccc(Oc2ccccc2Oc2ccccc2F)c(C(=O)O)c1)c1ccc(N(CC2CC2)c2ccc(Cl)cc2)cn1 [1:46, 5-{5-[(4-Chlorophenyl)(cyclopropylmethyl)amino]picolinoyl}-2-[2-(2-fluorophenoxy)phenoxy]benzoic acid]
2 | 1030 | 88 | CN(c1ccc(Cl)cc1)c1ccc(C(=O)c2ccc(Oc3ccccc3[S+](C)[O-])c(C(=O)O)c2)nc1 (stereo not drawn) [1:47, 5-{5-[(4-Chlorophenyl)(methyl)amino]picolinoyl}-2-(2-methylsulfinylphenoxy)-benzoic acid]
3 | 632 | 95 | CN(c1ccc(Cl)cc1)c1ccc(C(=O)c2ccc(Oc3ccccc3S(C)(=O)=O)c(C(=O)O)c2)nc1 [1:48, 5-{5-[(4-Chlorophenyl)(methyl)amino]picolinoyl}-2-(2-methylsulfonylphenoxy)-benzoic acid]
4 | 53 | 99 | CN(c1ccc(Cl)cc1)c1ccc(C(=O)c2ccc(Nc3ccc(C(F)(F)F)cc3)c(C(=O)O)c2)nc1 [2:1, 5-{5-[(4-Chlorophenyl)(methyl)amino]picolinoyl}-2-(4-trifluoromethylphenyl-amino)benzoic acid]
5 | 66 |  | CN(c1ccc(Cl)cc1)c1ccc(C(=O)c2ccc(NC3CCC(C(C)(C)C)CC3)c(C(=O)O)c2)nc1 (stereo not drawn) [2:2, 2-(4-tert-Butylcyclohexylamino)-5-{5-[(4-chlorophenyl)(methyl)amino]picolinoyl}-benzoic acid]
6 | 92 |  | CN(c1ccc(Cl)cc1)c1ccc(C(=O)c2ccc(NCc3ccccc3)c(C(=O)O)c2)nc1 [2:3, 2-Benzylamino-5-{5-[(4-chlorophenyl)(methyl)amino]picolinoyl}benzoic acid]
7 | 140 |  | CN(c1ccc(Cl)cc1)c1ccc(C(=O)c2ccc(NC3CCCCC3)c(C(=O)O)c2)nc1 [2:4, 5-{5-[(4-Chlorophenyl)(methyl)amino]picolinoyl}cyclohexylaminobenzoic acid]
8 | 3000 |  | CN(c1ccc(Cl)cc1)c1ccc(C(=O)c2ccc(N3CCC(C(C)(C)C)CC3)c(C(=O)O)c2)nc1 [2:5, 2-(4-tert-Butylpiperidin-1-yl)-5-{5-[(4-chlorophenyl)(methyl)amino]picolinoyl}benzoic acid]
9 | 151 |  | COc1ccc(CNc2ccc(C(=O)c3ccc(N(C)c4ccc(Cl)cc4)cn3)cc2C(=O)O)cc1 [2:6, 5-{5-[(4-Chlorophenyl)(methyl)amino]picolinoyl}-2-(4-methoxybenzylamino)benzoic acid]
10 | 133 |  | COc1cccc(CNc2ccc(C(=O)c3ccc(N(C)c4ccc(Cl)cc4)cn3)cc2C(=O)O)c1 [2:7, 5-{5-[(4-Chlorophenyl)(methyl)amino]picolinoyl}-2-(3-methoxybenzylamino)benzoic acid]
11 | 132 |  | COc1ccccc1CNc1ccc(C(=O)c2ccc(N(C)c3ccc(Cl)cc3)cn2)cc1C(=O)O [2:8, 5-{5-[(4-Chlorophenyl)(methyl)amino]picolinoyl}-2-(2-methoxybenzylamino)benzoic acid]
12 | 466 |  | CN(c1ccc(Cl)cc1)c1ccc(C(=O)c2ccc(NCc3cccnc3)c(C(=O)O)c2)nc1 [2:9, 5-{5-[(4-Chlorophenyl)(methyl)amino]picolinoyl}-2-[(3-pyridylmethyl)amino]benzoic acid]
13 | 157 |  | CN(c1ccc(Cl)cc1)c1ccc(C(=O)c2ccc(NCc3ccc(F)cc3)c(C(=O)O)c2)nc1 [2:10, 5-{5-[(4-Chlorophenyl)(methyl)amino]picolinoyl}-2-(4-fluorobenzylamino)benzoic acid]
14 | 88 |  | CN(c1ccc(Cl)cc1)c1ccc(C(=O)c2ccc(NCc3ccc(Cl)cc3Cl)c(C(=O)O)c2)nc1 [2:11, 5-{5-[(4-Chlorophenyl)(methyl)amino]picolinoyl}-2-(2,4-dichlorobenzylamino)benzoic acid]
15 | 66 |  | CN(c1ccc(Cl)cc1)c1ccc(C(=O)c2ccc(NCc3ccc4c(c3)OCO4)c(C(=O)O)c2)nc1 [2:12, 5-{5-[(4-Chlorophenyl)(methyl)amino]picolinoyl}-2-(3,4-methylenedioxybenzylamino)benzoic acid]
16 | 160 |  | COc1ccc(Nc2ccc(C(=O)c3ccc(N(C)c4ccc(Cl)cc4)cn3)cc2C(=O)O)cc1 [2:13, 5-{5-[(4-Chlorophenyl)(methyl)amino]picolinoyl}-2-(4-methoxyphenylamino)benzoic acid]
17 | 68 |  | COc1ccccc1Nc1ccc(C(=O)c2ccc(N(C)c3ccc(Cl)cc3)cn2)cc1C(=O)O [2:14, 5-{5-[(4-Chlorophenyl)(methyl)amino]picolinoyl}-2-(2-methoxyphenylamino)benzoic acid]

Row | IC50 [nM] | inhibition at 10 µM [%] | Structure (SMILES)
18 | 184 |  | CN(c1ccc(Cl)cc1)c1ccc(C(=O)c2ccc(NC3CCC(F)(F)CC3)c(C(=O)O)c2)nc1 [2:15, 5-{5-[(4-Chlorophenyl)(methyl)amino]picolinoyl}-2-(4,4-difluorocyclohexylamino)benzoic acid]
19 | 333 |  | CN(c1ccc(Cl)cc1)c1ccc(C(=O)c2ccc(NC3CCOCC3)c(C(=O)O)c2)nc1 [2:16, 5-{5-[(4-Chlorophenyl)(methyl)amino]picolinoyl}-2-(4-tetrahydropyranylamino)benzoic acid]
20 | 138 |  | CN(c1ccc(Cl)cc1)c1ccc(C(=O)c2ccc(Nc3ccc(C(O)(C(F)(F)F)C(F)(F)F)cc3)c(C(=O)O)c2)nc1 [2:17, 5-{5-[(4-Chlorophenyl)(methyl)amino]picolinoyl}-2-[4-(1,1,1,3,3,3-hexafluoro-2-hydroxy-2-propyl)phenylamino]benzoic acid]
21 | 188 |  | CN(c1ccc(Cl)cc1)c1ccc(C(=O)c2ccc(Nc3cccc(S(C)(=O)=O)c3)c(C(=O)O)c2)nc1 [2:18, 5-{5-[(4-Chlorophenyl)(methyl)amino]picolinoyl}-2-(3-methylsulfonylphenyl-amino)benzoic acid]
22 | 149 |  | CN(c1ccc(Cl)cc1)c1ccc(C(=O)c2ccc(NC3CCSCC3)c(C(=O)O)c2)nc1 [2:19, 5-{5-[(4-Chlorophenyl)(methyl)amino]picolinoyl}-2-(4-tetrahydrothiopyranylamino)benzoic acid]
23 | 658 |  | CN(c1ccc(Cl)cc1)c1ccc(C(=O)c2ccc(NC3CCS(=O)(=O)CC3)c(C(=O)O)c2)nc1 [2:20, 5-{5-[(4-Chlorophenyl)(methyl)amino]picolinoyl}-2-(1,1-dioxotetrahydrothiopyran-4-ylamino)benzoic acid]
24 | 139 |  | CN(c1ccc(Cl)cc1)c1ccc(C(=O)c2ccc(Nc3ccccc3)c(C(=O)O)c2)nc1 [2:21, 5-{5-[(4-Chlorophenyl)(methyl)amino]picolinoyl}-2-phenylaminobenzoic acid]
25 | 2000 |  | CN(c1ccc(Cl)cc1)c1ccc(C(=O)c2ccc(N3CCC(C(F)(F)F)CC3)c(C(=O)O)c2)nc1 [2:22, 5-{5-[(4-Chlorophenyl)(methyl)amino]picolinoyl}-2-(4-trifluoromethyl-1-piperidinyl)benzoic acid]
26 | 33 | 100 | CN(c1ccc(Cl)cc1)c1ccc(C(=O)c2ccc(NC(=O)c3ccc(C(F)(F)F)cc3)c(C(=O)O)c2)nc1 [3:1, 5-{5-[(4-Chlorophenyl)(methyl)amino]picolinoyl}-2-(4-trifluoromethylbenzamido)-benzoic acid]
27 | 25 | 100 | CN(c1ccc(Cl)cc1)c1ccc(C(=O)c2ccc(NC(=O)c3cc(Cl)ccc3O)c(C(=O)O)c2)nc1 [3:2, 2-(5-Chloro-2-hydroxybenzamido)-5-{5-[(4-chlorophenyl)(methyl)amino]-picolinoyl}benzoic acid]
28 | 34 |  | CN(c1ccc(Cl)cc1)c1ccc(C(=O)c2ccc(NC(=O)c3ccccc3)c(C(=O)O)c2)nc1 [3:3, 2-Benzamido-5-{5-[(4-chlorophenyl)(methyl)amino]picolinoyl}benzoic acid]
29 | 23 |  | COc1ccc(C(=O)Nc2ccc(C(=O)c3ccc(N(C)c4ccc(Cl)cc4)cn3)cc2C(=O)O)cc1 [3:4, 5-{5-[(4-Chlorophenyl)(methyl)amino]picolinoyl}-2-(4-methoxybenzamido)-benzoic acid]
30 | 32 |  | COc1ccccc1C(=O)Nc1ccc(C(=O)c2ccc(N(C)c3ccc(Cl)cc3)cn2)cc1C(=O)O [3:5, 5-{5-[(4-Chlorophenyl)(methyl)amino]picolinoyl}-2-(2-methoxybenzamido)-benzoic acid]
31 | 11 |  | CN(c1ccc(Cl)cc1)c1ccc(C(=O)c2ccc(NC(=O)c3ccc4c(c3)OCO4)c(C(=O)O)c2)nc1 [3:6, 5-{5-[(4-Chlorophenyl)(methyl)amino]picolinoyl}-2-(3,4-methylenedioxy-benzamido)benzoic acid]
32 | 31 |  | COc1ccc(C(=O)Nc2ccc(C(=O)c3ccc(N(CC4CC4)c4ccc(Cl)cc4)cn3)cc2C(=O)O)cc1 [3:7, 5-{5-[(4-Chlorophenyl)(cyclopropylmethyl)amino]picolinoyl}-2-(4-methoxy-benzamido)benzoic acid]
33 | 40 |  | COc1ccccc1C(=O)Nc1ccc(C(=O)c2ccc(N(CC3CC3)c3ccc(Cl)cc3)cn2)cc1C(=O)O [3:8, 5-{5-[(4-Chlorophenyl)(cyclopropylmethyl)amino]picolinoyl}-2-(2-methoxy-benzamido)benzoic acid]
34 | 21 |  | O=C(Nc1ccc(C(=O)c2ccc(N(CC3CC3)c3ccc(Cl)cc3)cn2)cc1C(=O)O)c1ccc2c(c1)OCO2 [3:9, 5-{5-[(4-Chlorophenyl)(cyclopropylmethyl)amino]picolinoyl}-2-(3,4-methylene-dioxybenzamido)benzoic acid]
